Results on two molecules are retold here after publication PMC12024193, “Engineered Lysin-Derived Peptide as a Potent Antimicrobial for Acne Vulgaris” (Antibiotics, 2025).

For one data set, the system named is S. aureus strain USA300. The experiment in a line: One-hour killing assay with or without retinoic acid. It is filed as cell-based, Staphylococcus aureus. The following applies: MRSA USA300, 1 h, Tris pH 7.2, 37 °C, triplicate. The method, then: (§1) Unless stated otherwise, the standard conditions for killing assays involved statically treating exponential phase bacteria at approximately 5 × 10^5 CFU/mL with a lysin-derived peptide at 25 μg/mL in a 96-well microtiter plate under aerobic (S. aureus) or anaerobic conditions (C. acnes and S. aureus) in 20 mM Tris (Fisher Scientific), pH 7.2, for 1 h at 37 °C. For dose–response killing assays, peptide concentrations ranging from 1 up to 125 μg/mL were tested.
For measuring the effect of retinoid on peptide bactericidal activity, S. aureus strain USA300 at 10^6 CFU/mL was treated with or without P156 at 25 μg/mL in buffer supplemented with all-trans-retinoic acid (Sigma-Aldrich) at 0.01–0.1% (w/v).
Each killing assay comprised an untreated control (bacteria absent peptide) for every condition tested. After 1 h, 100 μL directly from the sample, as well as 5 μL of each dilution from a 10-fold serial dilution, were plated on either TSB agar (for S. aureus killing assays using aerobic conditions), rTSB agar (for S. aureus killing assays using anaerobic conditions), or rTSB agar with 2% glycerol (for C. acnes killing assays) in order to quantitate bacterial viability. The LOD for each experiment was 10 CFU/mL, with one exception. […] For statistical analysis, p-values were calculated using an unpaired t-test due to each lysin or peptide dose being compared individually to the untreated group. […]

The subject of another data set is C. acnes. The data set is described as follows: One-hour killing assay against C. acnes (dose-response; temperature, pH and NaCl variations). It is filed as cell-based, Cutibacterium acnes. The method, then:
(§2) Bacterial strains used in this study are outlined in Table 2 and were stored at −80 °C. C. acnes strains were grown in a BACTRON900 anaerobic chamber (Sheldon Manufacturing Inc., Cornelius, OR, USA) at 37 °C to exponential phase in reduced Trypticase Soy Broth (rTSB, BD Biosciences, Franklin Lakes, NJ, USA) supplemented with 2% (v/v) glycerol. S. aureus strains were grown either aerobically or anaerobically at 37 °C to the exponential phase in TSB (aerobic growth) or rTSB (anaerobic growth).
as §1
To evaluate the effect salt has on the antibacterial activity of the peptide, C. acnes strain ATCC 6919 was treated with P156 in buffer supplemented with 0-500 mM NaCl. The bactericidal potency of P156 in a broad pH range was assayed by treating C. acnes strain ATCC 6919 with the peptide in either 20 mM 2-(N-morpholino) ethanesulfonic acid (MES, pH 5.5–6.5; Fisher Scientific), sodium phosphate buffer (NaPO4, pH 6.5–7.0), or Tris (pH 7.0–8.0).
(§3) Temperature-based killing assays were performed by initially thawing a frozen aliquot of P156, which was then stored at 4 °C for a month. This was the only experiment where an aliquot of a lysin-derived peptide was stored for an extended period of time at a temperature other than −80 °C. Next, C. acnes strain ATCC 6919 was treated with the above-mentioned P156 aliquot in buffer at 15 °C to 40 °C. For these experiments, separate aliquots of both the bacteria at 10^6 CFU/mL and peptide at 50 μg/mL were initially equilibrated to the temperature being assayed for 5 min in 1.7 mL microcentrifuge tubes using an EchoTherm chilling/heating plate (Torrey Pines Scientific, Carlsbad, CA, USA). The bacteria and peptide were then mixed together 1:1 in a microcentrifuge tube, yielding respective final concentrations of 5 × 10^5 CFU/mL and 25 μg/mL, and subsequently incubated in the chilling/heating plate for 1 h.
(§4) Each killing assay comprised an untreated control (bacteria absent peptide) for every condition tested. After 1 h, 100 μL directly from the sample, as well as 5 μL of each dilution from a 10-fold serial dilution, were plated on either TSB agar (for S. aureus killing assays using aerobic conditions), rTSB agar (for S. aureus killing assays using anaerobic conditions), or rTSB agar with 2% glycerol (for C. acnes killing assays) in order to quantitate bacterial viability. The LOD for each experiment was 10 CFU/mL, with one exception. For the dose–response killing assay evaluating the collection of peptides against C. acnes, only the 10-fold serial dilutions from each sample were plated, resulting in an LOD of 200 CFU/mL. Experiments performed under anaerobic conditions used agar plates that were reduced overnight. Additionally, buffers for these particular assays were made fresh the day of the experiment and reduced for 2 h prior to use. Error bars correspond to the standard error of the mean (SEM) of two or three biological replicates. For statistical analysis, p-values were calculated using an unpaired t-test due to each lysin or peptide dose being compared individually to the untreated group. Additionally, to ensure clarity in presenting statistical significance, we used three types of statistical markers to highlight differences: ns, not significant, * p < 0.05 and a <3-log CFU reduction (with respect to the untreated group), ** p < 0.05 and a ≥3-log CFU reduction (with respect to the untreated group).

The next data set deals with S. aureus. The data set is described as follows: One-hour killing assay against S. aureus (aerobic or anaerobic growth). It is filed as cell-based, Staphylococcus aureus. The conditions noted are these: 20 mM Tris, pH 7.2, 1 h, 37 °C. The method, then:
as §2, §1, §4

For data set [1], the system named is C. acnes strain ATCC 6919. The data set is described as follows: Time-kill assay. It is filed as cell-based, Cutibacterium acnes. The following applies: 25 μg/mL, 20 mM Tris, pH 7.2, 37 °C, three biological replicates. The method, then: Using an EchoTherm chilling/heating plate, separate aliquots of both C. acnes strain ATCC 6919 at 10^6 CFU/mL and P156 at 50 μg/mL in 20 mM Tris, pH 7.2, were equilibrated to 37 °C for 10 min in 1.7 mL microcentrifuge tubes. The bacteria and peptide were then combined 1:1 in a microcentrifuge tube to obtain final concentrations of 5 × 10^5 CFU/mL and 25 μg/mL, respectively. An untreated control (bacteria without peptide) was also included. The samples were incubated for a total of 30 min at 37 °C. At 1, 5, 10, 15, 20, 25 and 30 min, an aliquot was removed. Both 100 μL directly from the sample, as well as 5 μL of each dilution from a 10-fold serial dilution, were plated on rTSB agar supplemented with 2% (v/v) glycerol in order to assess bacterial viability. The LOD was 10 CFU/mL. Error bars correspond to ±SEM of three biological replicates. For statistical analysis, p-values were calculated using an unpaired t-test between the untreated group and the peptide-treated group at each time point. ** p < 0.05 and a ≥3-log CFU reduction (with respect to the untreated group).

Data set [2] has as its system C. acnes strain ATCC 6919. The experiment in a line: Storage stability: bactericidal activity after thawing from -80 °C and four weeks at 4 °C. The class given is physicochemical, Cutibacterium acnes. The following applies: thawed from -80 °C, stored four weeks at 4 °C; read-out bactericidal activity at 25 μg/mL against C. acnes ATCC 6919. The method, then:
as §3

[3] abbreviates: 25 μg/mL, ATCC 6919, 1 h, 37 °C.

Take `CC1=C(/C=C/C(C)=C/C=C/C(C)=C/C(=O)O)C(C)(C)CCC1` [retinoic acid, all-trans-retinoic acid, reference compound]: the “antibacterial effect of retinoic acid alone on S. aureus” value with S. aureus strain USA300 (0.01-0.1% retinoic acid) is listed as “no antibacterial effect”.

For “RRKAKAPRAEIYAQFNKWVYAGGKKLSGLVKRRRR [Peptide P156, variant peptide engineered by adding arginine residues at both the N- and C-terminal ends of the parental peptide PiP01]”, in the data set with C. acnes (25 μg/mL, ATCC 6919, 15-40 °C, 1 h, peptide stored four weeks at 4 °C), the “log reduction of bacterial counts at each temperature assayed” value is recorded as over 4 logs. Moreover, in the data set with C. acnes (setting [3]), the “bactericidal effect at elevated pH levels (up to 7.6)” value was “able to eradicate C. acnes”, the “bactericidal effect within pH 6-7” value was “complete bacterial eradication” and the “log reduction of C. acnes populations in 50 mM NaCl” value is 3 logs. For the same molecule, the “log CFU reduction (below LOD) at under 25 mM NaCl / lower salt concentrations” value in the data set with C. acnes (25 μg/mL, ATCC 6919, 1 h, 37 °C, LOD 10 CFU/mL) is over 4 log CFU. Also, in the data set on C. acnes (25 μg/mL, ATCC 6919, 1 h, peptide stored four weeks at 4 °C, LOD 10 CFU/mL, triplicate), the “log reduction of C. acnes CFU counts (below LOD) at 20 °C to 40 °C” value is reported as over 5 logs. Moreover, the “antibacterial activity at high salt concentrations” value in the data set with C. acnes (25 μg/mL, ATCC 6919, NaCl, 1 h, 37 °C) was “lack of antibacterial activity”. Moreover, in the data set on C. acnes (25 μg/mL, ATCC 6919, buffer supplemented with NaCl, 1 h, 37 °C, triplicate), the “log reduction of CFU counts at ≤50 mM NaCl” value is listed as over 3 log CFU. The “log kill of all C. acnes strains tested” value in the data set on C. acnes (peptide at 5 μg/mL, seven strains, 20 mM Tris, pH 7.2, 1 h, 37 °C) is recorded as at least 3 log. In the data set with C. acnes (peptide at 25 μg/mL, 20 mM Tris, pH 7.2, 1 h, 37 °C), the “log CFU reduction of all C. acnes strains (below LOD)” value is listed as over 4 log CFU. The “concentration lowering the viability of all C. acnes strains below the LOD” value with C. acnes (seven strains, 20 mM Tris, pH 7.2, 1 h, 37 °C, LOD 200 CFU/mL, duplicate) was at least 5 µg/mL. In the data set with S. aureus (aerobic, strains 8325, USA300, USA400, LOD 10 CFU/mL), the “lowest concentration reducing CFU counts of all S. aureus strains below the LOD” value was 5 µg/mL. For the same molecule, in the data set with S. aureus (peptide at 5 μg/mL), the “log kill of all S. aureus strains tested” value is recorded as at least 3 log. Besides, the “log CFU reduction of all S. aureus strains (below LOD)” value in the data set with S. aureus (peptide at 25 μg/mL) is listed as over 4 log CFU. The “log kill of MRSA strain USA300 grown under anaerobic conditions” value in the data set on S. aureus (peptide at 25 μg/mL, anaerobic, LOD 10 CFU/mL, triplicate) is over 5 log. In addition, in data set [1], the “log reduction in bacterial CFU in 10 min” value was over 5 log and the “log reduction in bacterial CFU within 1 min” value is on record as over 3 log. Further, the “log CFU reduction of S. aureus in the presence of 0.01-0.1% retinoic acid” value in the data set with S. aureus strain USA300 (P156 at 25 μg/mL, LOD 10 CFU/mL) is over 5 log CFU. For the same molecule, in data set [2], the “stability after four weeks of storage at 4 °C” value is “remains stable and active”.
